{"source": "patent US20240239790A1", "about": "“7-Morpholino-1,6-Naphthyridin-5-yl Derivatives and Pharmaceutical Compositions Thereof Useful as DNA-PK Inhibitor” (adMare Therapeutics Society, priority 2021, published 2024)", "data": [{"target": "T1, DNA-PK phosphorylation at Serine 2056 (Homo sapiens, UniProt P78527)", "T1 construct": "FaDu cells were purchased from ATCC; host or cells: FaDu", "assay": "Cellular Assay for Inhibition of DNA-PK Phosphorylation at Serine 2056 in FaDu cells (sandwich ELISA, neocarzinostatin)", "format": "cell-based", "conditions": "pSer2056 DNA-PK, Table 3", "description": "FaDu cells were purchased from ATCC and maintained in MEM alpha medium (Life Technologies, cat. no. 12561) supplemented with 10% fetal bovine serum, and 1% GlutaMAX at 37° C. supplemented with 5% CO2. 50,000 cells were seeded to each well of a 96-well cell culture plate in 50 μL of culture medium and incubated for 16-24 hours. Three-fold serially diluted compounds were prepared in DMSO. Culture media was used to prepare compound treatments to 0.3% DMSO (dimethyl sulphoxide) content. Compound treatments were added to the cells for 1 hour prior incubation, followed by the addition of neocarzinostatin in fresh culture medium to 1 μg/mL final concentration for an additional 2 hours incubation to induce DNA DSBs (double-strand breaks). DMSO controls were incubated with fresh culture medium alone for the additional two hours incubation. The cells were then lysed and frozen at −20° C. Cell lysates were thawed on wet ice and protein concentrations quantified by BCA Protein Assay (Thermo #23225). Lysis buffer was used to normalize lysates by protein content and all lysates were then investigated by sandwich ELISA by means of DNA-PK-specific antibodies (Abcam ab44815: total DNA-PK; ab124918: phosphoserine-2056 DNA-PK) in sandwich ELISA format on the MSD S600MM platform (MesoScale Discovery). % inhibition was calculated for all data points: =1−(DATA_PT−AVERAGE(DMSO controls))/(AVERAGE(NCS controls)−AVERAGE(DMSO controls)). Logarithm of the molar concentration of compound was plotted against percent inhibition to calculate IC50 values, with curve fit settings for data fit to log(inhibitor) vs. normalized response—Variable slope using curve fit software (GraphPad Prism).", "units": {"IC50": "nM"}, "values": [{"smiles": "CS(=O)(=O)Nc1cnc2cc(N3CCOCC3)nc(O[C@H]3CC[C@@H](Nc4ncc(N5CC6CCC(C5)N6)cn4)CC3)c2c1", "note": "[LFA2016, N-[5-[4-[[5-(3,8-diazabicyclo[3.2.1]octan-3-yl)pyrimidin-2-yl]amino]cyclohexoxy]-7-morpholino-1,6-naphthyridin-3-yl]methanesulfonamide]", "IC50": "100 to 1000"}, {"smiles": "CS(=O)(=O)Nc1cnc2cc(N3CCOCC3)nc(O[C@H]3CC[C@@H](Nc4ncc(N5CCN(CC(F)(F)F)CC5)cn4)CC3)c2c1", "note": "[LFA2017, N-[7-morpholino-5-[4-[[5-[4-(2,2,2-trifluoroethyl)piperazin-1-yl]pyrimidin-2-yl]amino]cyclohexoxy]-1,6-naphthyridin-3-yl]methanesulfonamide]", "IC50": "< 100"}, {"smiles": "CS(=O)(=O)Nc1cnc2cc(N3CCOCC3)nc(O[C@H]3CC[C@@H](Nc4ncc(N5CCN(CC(F)F)CC5)cn4)CC3)c2c1", "note": "[LFA2018, N-[5-[4-[[5-[4-(2,2-difluoroethyl)piperazin-1-yl]pyrimidin-2-yl]amino]cyclohexoxy]-7-morpholino-1,6-naphthyridin-3-yl]methanesulfonamide]", "IC50": "< 100"}, {"smiles": "CS(=O)(=O)Nc1cnc2cc(N3CCOCC3)nc(O[C@H]3CC[C@@H](Nc4ncc(N5CCN(C6COC6)CC5)cn4)CC3)c2c1", "note": "[LFA2019, N-[7-morpholino-5-[4-[[5-[4-(oxetan-3-yl)piperazin-1-yl]pyrimidin-2-yl]amino]cyclohexoxy]-1,6-naphthyridin-3-yl]methanesulfonamide]", "IC50": "< 100"}, {"smiles": "CS(=O)(=O)Nc1cnc2cc(N3CCOCC3)nc(O[C@H]3CC[C@@H](Nc4ncc(CN5CCOCC5)cn4)CC3)c2c1", "note": "[LFA2020, N-[7-morpholino-5-[4-[[5-(morpholinomethyl)pyrimidin-2-yl]amino]cyclohexoxy]-1,6-naphthyridin-3-yl]methanesulfonamide]", "IC50": "< 100"}, {"smiles": "CS(=O)(=O)Nc1cnc2cc(N3CCOCC3)nc(O[C@H]3CC[C@@H](Nc4ncc(C5=CCNCC5)cn4)CC3)c2c1", "note": "[LFA2021, N-[7-morpholino-5-[4-[[5-(1,2,3,6-tetrahydropyridin-4-yl)pyrimidin-2-yl]amino]cyclohexoxy]-1,6-naphthyridin-3-yl]methanesulfonamide]", "IC50": "100 to 1000"}, {"smiles": "CS(=O)(=O)Nc1cnc2cc(N3CCOCC3)nc(O[C@H]3CC[C@@H](Nc4ncc(OCCN5CCNCC5)cn4)CC3)c2c1", "note": "[LFA2022, N-[7-morpholino-5-[4-[[5-(2-piperazin-1-ylethoxy)pyrimidin-2-yl]amino]cyclohexoxy]-1,6-naphthyridin-3-yl]methanesulfonamide]", "IC50": "< 100"}, {"smiles": "CS(=O)(=O)Nc1cnc2cc(N3CCOCC3)nc(O[C@H]3CC[C@@H](Nc4ncc(OCCN5CCOCC5)cn4)CC3)c2c1", "note": "[LFA2023, N-[7-morpholino-5-[4-[[5-(2-morpholinoethoxy)pyrimidin-2-yl]amino]cyclohexoxy]-1,6-naphthyridin-3-yl]methanesulfonamide]", "IC50": "< 100"}, {"smiles": "CN(C)CCOc1cnc(N[C@H]2CC[C@@H](Oc3nc(N4CCOCC4)cc4ncc(NS(C)(=O)=O)cc34)CC2)nc1", "note": "[LFA2024, N-[5-[4-[[5-[2-(dimethylamino)ethoxy]pyrimidin-2-yl]amino]cyclohexoxy]-7-morpholino-1,6-naphthyridin-3-yl]methanesulfonamide]", "IC50": "100 to 1000"}, {"smiles": "CN1CCC(Oc2cnc(N[C@H]3CC[C@@H](Oc4nc(N5CCOCC5)cc5ncc(NS(C)(=O)=O)cc45)CC3)nc2)C1", "note": "(some centres unmarked) [LFA2025, N-[5-[4-[[5-(1-methylpyrrolidin-3-yl)oxypyrimidin-2-yl]amino]cyclohexoxy]-7-morpholino-1,6-naphthyridin-3-yl]methanesulfonamide]", "IC50": "100 to 1000"}, {"smiles": "CN1CCN(CCOc2ccnc(N[C@H]3CC[C@@H](Oc4nc(N5CCOCC5)cc5ncc(NS(C)(=O)=O)cc45)CC3)n2)CC1", "note": "[LFA2026, N-[5-[4-[[4-[2-(4-methylpiperazin-1-yl)ethoxy]pyrimidin-2-yl]amino]cyclohexoxy]-7-morpholino-1,6-naphthyridin-3-yl]methanesulfonamide]", "IC50": "100 to 1000"}, {"smiles": "CS(=O)(=O)Nc1cnc2cc(N3CCOCC3)nc(O[C@H]3CC[C@@H](Nc4ncc(OCCN)cn4)CC3)c2c1", "note": "[LFA2027, N-[5-[4-[[5-(2-aminoethoxy)pyrimidin-2-yl]amino]cyclohexoxy]-7-morpholino-1,6-naphthyridin-3-yl]methanesulfonamide]", "IC50": "< 100"}, {"smiles": "CS(=O)(=O)Nc1cnc2cc(N3CCOCC3)nc(O[C@H]3CC[C@@H](Nc4ncc(OCCO)cn4)CC3)c2c1", "note": "[LFA2028, N-[5-[4-[[5-(2-hydroxyethoxy)pyrimidin-2-yl]amino]cyclohexoxy]-7-morpholino-1,6-naphthyridin-3-yl]methanesulfonamide]", "IC50": "< 100"}, {"smiles": "CS(=O)(=O)Nc1cnc2cc(N3CCOCC3)nc(O[C@H]3CC[C@@H](Nc4ncc(N5CCOCC5)cn4)CC3)c2c1", "note": "[LFA2029, N-[7-morpholino-5-[4-[(5-morpholinopyrimidin-2-yl)amino]cyclohexoxy]-1,6-naphthyridin-3-yl]methanesulfonamide]", "IC50": "< 100"}, {"smiles": "CS(=O)(=O)Nc1cnc2cc(N3CCOCC3)nc(O[C@H]3CC[C@@H](Nc4ncc(CCN5CCOCC5)cn4)CC3)c2c1", "note": "[LFA2030, N-[7-morpholino-5-[4-[[5-(2-morpholinoethyl)pyrimidin-2-yl]amino]cyclohexoxy]-1,6-naphthyridin-3-yl]methanesulfonamide]", "IC50": "< 100"}, {"smiles": "CN1CCN(CCc2cnc(N[C@H]3CC[C@@H](Oc4nc(N5CCOCC5)cc5ncc(NS(C)(=O)=O)cc45)CC3)nc2)CC1", "note": "[LFA2031, N-[5-[4-[[5-[2-(4-methylpiperazin-1-yl)ethyl]pyrimidin-2-yl]amino]cyclohexoxy]-7-morpholino-1,6-naphthyridin-3-yl]methanesulfonamide]", "IC50": "< 100"}, {"smiles": "CN1CCN(c2cnc(N[C@H]3CC[C@@H](Oc4nc(N5CCOCC5)cc5ncc(NS(C)(=O)=O)cc45)CC3)nc2)CC1", "note": "[LFA2032, N-[5-[4-[[5-(4-methylpiperazin-1-yl)pyrimidin-2-yl]amino]cyclohexoxy]-7-morpholino-1,6-naphthyridin-3-yl]methanesulfonamide]", "IC50": "< 100"}, {"smiles": "CN1CCC(Oc2cnc(N[C@H]3CC[C@@H](Oc4nc(N5CCOCC5)cc5ncc(O)cc45)CC3)nc2)C1", "note": "(some centres unmarked) [LFA2033, 5-[4-[[5-(1-methylpyrrolidin-3-yl)oxypyrimidin-2-yl]amino]cyclohexoxy]-7-morpholino-1,6-naphthyridin-3-ol]", "IC50": "< 100"}, {"smiles": "CN1CCN(CCOc2cnc(N[C@H]3CC[C@@H](Oc4nc(N5CCOCC5)cc5ncc(O)cc45)CC3)nc2)CC1", "note": "[LFA2034, 5-[4-[[5-[2-(4-methylpiperazin-1-yl)ethoxy]pyrimidin-2-yl]amino]cyclohexoxy]-7-morpholino-1,6-naphthyridin-3-ol]", "IC50": "< 100"}, {"smiles": "Oc1cnc2cc(N3CCOCC3)nc(O[C@H]3CC[C@@H](Nc4ncc(OCCN5CCOCC5)cn4)CC3)c2c1", "note": "[LFA2035, 7-morpholino-5-[4-[[5-(2-morpholinoethoxy)pyrimidin-2-yl]amino]cyclohexoxy]-1,6-naphthyridin-3-ol]", "IC50": "< 100"}, {"smiles": "CN1CC[C@H](Oc2cnc(N[C@H]3CC[C@@H](Oc4nc(N5CCOCC5)cc5ncc(NS(C)(=O)=O)cc45)CC3)nc2)C1", "note": "[LFA2036, N-[5-[4-[[5-[(3S)-1-methylpyrrolidin-3-yl]oxypyrimidin-2-yl]amino]cyclohexoxy]-7-morpholino-1,6-naphthyridin-3-yl] methanesulfonamide]", "IC50": "< 100"}, {"smiles": "CN1CC[C@@H](Oc2cnc(N[C@H]3CC[C@@H](Oc4nc(N5CCOCC5)cc5ncc(NS(C)(=O)=O)cc45)CC3)nc2)C1", "note": "[LFA2037, N-[5-[4-[[5-[(3R)-1-methylpyrrolidin-3-yl]oxypyrimidin-2-yl]amino]cyclohexoxy]-7-morpholino-1,6-naphthyridin-3-yl] methanesulfonamide]", "IC50": "< 100"}, {"smiles": "Cc1nc(N[C@H]2CC[C@@H](Oc3nc(N4CCOCC4)cc4ncc(NS(C)(=O)=O)cc34)CC2)ncc1N1CCN(C)CC1", "note": "[LFA2038, N-[5-[4-[[4-methyl-5-(4-methylpiperazin-1-yl)pyrimidin-2-yl]amino]cyclohexoxy]-7-morpholino-1,6-naphthyridin-3-yl]methanesulfonamide]", "IC50": "< 100"}, {"smiles": "Cc1nc(N[C@H]2CC[C@@H](Oc3nc(N4CCOCC4)cc4ncc(NS(C)(=O)=O)cc34)CC2)ncc1OCCN1CCN(C)CC1", "note": "[LFA2039, N-[5-[4-[[4-methyl-5-[2-(4-methylpiperazin-1-yl)ethoxy]pyrimidin-2-yl]amino]cyclohexoxy]-7-morpholino-1,6-naphthyridin-3-yl]methanesulfonamide]", "IC50": "< 100"}, {"smiles": "Cc1nc(N[C@H]2CC[C@@H](Oc3nc(N4CCOCC4)cc4ncc(NS(C)(=O)=O)cc34)CC2)ncc1OCCN1CCOCC1", "note": "[LFA2040, N-[5-[4-[[4-methyl-5-(2-morpholinoethoxy)pyrimidin-2-yl]amino]cyclohexoxy]-7-morpholino-1,6-naphthyridin-3-yl]methanesulfonamide]", "IC50": "< 100"}, {"smiles": "CN1CCc2nc(N[C@H]3CC[C@@H](Oc4nc(N5CCOCC5)cc5ncc(O)cc45)CC3)ncc2C1", "note": "[LFA2078, 5-[4-[(6-methyl-7,8-dihydro-5H-pyrido[4,3-d]pyrimidin-2-yl)amino]cyclohexoxy]-7-morpholino-1,6-naphthyridin-3-ol]", "IC50": "< 100"}]}]}
